Consider 12 compounds from patent US10035814B2, “Guanine analogs as telomerase substrates and telomere length affectors” (Geron Corporation, priority 2011, dated 2018).

The target in one data set is telomerase in HT3 cells (Homo sapiens (Human), UniProt O14746). The experiment in a line: Ex vivo TRAP assay in HT3 cells. It counts as cell-based. The procedure:
HT3 cells were treated for three days with increasing concentrations of PMPG-diisopropyloxy ester ranging from 0.2 μM to 20 μM. Cells (HT3 RPMI+10% PBS) were incubated with compound for 24 hr after which PSTS primer (phosphorothioate-d(AATCCGTCGAGCAGAGTT (SEQ ID NO: 6) containing a 5′ Cy-5 label) (7.5 μM) and fresh compound are added for an additional 24 hr. Cells were lysed and endogenous telomerase inactivated by heating (15 min, 75° C.). Products were amplified by 30 cycles of PCR under TRAP conditions set forth above and quantified. The results of two independent experiments are shown in Table 4.
HT3 cells were treated for three days with increasing concentrations of one or more of the indicated compounds ranging from 0.2 μM to 20 μM. Cells (HT3 RPMI+10% FBS) were incubated with compound for 24 hours, after which PSTS primer (phosphorothioate-d AATCCGTCGAGCAGAGTT (SEQ ID NO: 6) containing a 5′ Cy-5 label) (7.5 μM) and fresh compound were added for an additional 24 hours. Cells were lysed and endogenous telomerase inactivated by heating (15 minutes, 75° C.). Products were amplified by 30 cycles of PCR under TRAP conditions set forth in Kim et al., Science 266:2011, […] (which reference is incorporated herein in its entirety) and quantified.

The subject of another data set is A549 cells. The experiment in a line: Telomere repeat fragment (TRF) assay using A549 cells. The settings on record: approximately 70 population doublings. It counts as cell-based. Here is the method: (§1) Approximately 1-2 μg of genomic DNA from each cell line or tissue was digested by Hinf/RsaI for 2 hours at 37° C. Following DNA digestion, the genomic DNA fragments were separated on a 0.8% agarose gel and transferred to a nylon membrane by blotting. All membrane hybridization and detection reagents were provided in the TeloTAGGG Telomere Length Assay kit (Roche Diagnostics, Mannheim Germany). The blotted membranes were hybridized with digoxigenin (DIG)-labeled PNA probe specific for telomeric repeats, followed by incubation with anti-DIG-antibody-alkaline phosphatase according to the manufacturer's instructions. Alkaline phosphatase was quantified using the chemiluminescent substrate. Telomere lengths were calculated according to the manufacturer's instruction.
Lane 1 is a ladder from 21.2 kb to 1.9 kb. Lanes 2 and 3 have 10 μM and 5 μM, respectively, of PMPG free acid (ID#142693). Lanes 4 to 6 have 10 μM, 5 μM, and 2.5 μM, respectively, of PMPG prodrug (ID#142715). Lane 7 has 2 μM of Imetelstat (163 L). Lane 8 has 2 μM of a mismatch. Lanes 9 and 10 have 20 μM and 10 μM, respectively, of PMIBeG free acid [(((2-((2-amino-6-oxo-1H-purin-9(6H)-yl)methyl)allyl)oxy)methyl)phosphonic acid] (ID#142811). Indicated amounts each compound were added to A549 cells. After approximately 70 population doublings, the cells were harvested and telomere lengths determined using TRF. The estimated average telomere lengths were: (1) MM/mismatch control: 7 kb; (2) Imetelstat/163 L: 4.3 kb; (3) PMPG prodrug (10 μM and 5 μM): 4 kb; (4) PMPG free acid (5 μM and 10 μM): 4 kb; (5) PMIBeG prodrug (50 μM): 4.3 kb; (6) PMIBeG free acid (20 μM): 5 kb.

The next data set concerns RPE-64-tv cells. The experiment in a line: Cytotoxicity in RPE-64-tv cells. It counts as cell-based.
In another data set the test system is immortal U87 cells. The data set can be described thus: Telomere repeat fragment (TRF) assay using immortal U87 cells. It counts as cell-based. The settings on record: concentration not given at the value, approximately 20 population doublings. The procedure:
as §1
Telomere repeat fragment assays using immortal U87 cells were performed. 10 μM or 20 μM PMIBeG prodrug (ID#142820) or PMPG prodrug (ID#142715) were added to the cells. Imetelstat (163 L) was used as a reference and a mismatch was used as a negative control. After approximately 20 population doublings, the cells were harvested and telomere lengths determined using TRF. The estimated average lengths were: (1) mismatch control: 5 kb; (2) Imetelstat (163 L): 3.5 kb; (3) PMIBeG prodrug (ID#142820) at 20 μM: 4 kb; (4) PMIBeG prodrug (ID#142820) at 10 μM: 4.1 kb; (5) PMPG prodrug (ID#142715): 3.5 kb.

For the next data set, the system named is Caki-1 cells. The data set can be described thus: Caki-1 tumor growth in SCID hairless outbred (SHO) mice. It counts as in vivo. The settings on record: for tumor growth compared to vehicle control: 30 mg/kg intraperitoneal; for Intercept coefficient of linear transformed tumor growth curve / Slope coefficient of linear transformed tumor growth curve: linear mixed effects model, change versus vehicle. The procedure:
Low-passage Caki-1 cells were injected subcutaneously into the flank of SCID hairless outbred (SHO) mice receiving 30 mg/kg of one of the following via intraperitoneal injection: vehicle (PBS with 0.4% Tween 20), Imetelstat (163 L), PMPG free acid (ID#142693), or PMPG prodrug (ID#142715). Calipers were used to measure tumor length and width bi-weekly, and tumor volume was calculated. Once a tumor had grown >50 mm^3, the animal was randomly entered into a study group, either control or treatment. Animals received 30 mg/kg compound via intraperitoneal injection for the duration of the study. The control vehicle was PBS with 0.4% Tween 20. Tumor volume was measured bi-weekly, and animals were sacrificed either when tumor size was >2000 mm^3 or at defined study completion date.
At the conclusion of the study, a linear transformation of the tumor growth curves was performed. The slope of the growth curves for each treatment group was derived by using a linear mixed effects model. The Y-intercept was used to confirm random tumor starting size at the time of animals entering into the study.

A short description of data set [1]: Cytotoxicity in cell culture (cells not named). It counts as cell-based.
Where [2] appears, read: HT3 cells, 3 days, read-out: ExVivo TRAP EC50 (μM)- 3 Day Assay.
The mark [3] stands for this setting: Day 10, 30 mg/kg intraperitoneal.
[4] abbreviates: Day 20, 30 mg/kg intraperitoneal.
[5] abbreviates: Day 30, 30 mg/kg intraperitoneal.
Where [6] appears, read: Day 40, 30 mg/kg intraperitoneal.
Where [7] appears, read: Day 50, 30 mg/kg intraperitoneal.
The mark [8] stands for this setting: Day 60, 30 mg/kg intraperitoneal.

“And” between values parts separate entries of the source, which are not always exact repeats. Equal values may be shown once. Read-outs that look alike come from different tables or passages of the source.

Chain of telomerase in HT3 cells (O14746 whole entry): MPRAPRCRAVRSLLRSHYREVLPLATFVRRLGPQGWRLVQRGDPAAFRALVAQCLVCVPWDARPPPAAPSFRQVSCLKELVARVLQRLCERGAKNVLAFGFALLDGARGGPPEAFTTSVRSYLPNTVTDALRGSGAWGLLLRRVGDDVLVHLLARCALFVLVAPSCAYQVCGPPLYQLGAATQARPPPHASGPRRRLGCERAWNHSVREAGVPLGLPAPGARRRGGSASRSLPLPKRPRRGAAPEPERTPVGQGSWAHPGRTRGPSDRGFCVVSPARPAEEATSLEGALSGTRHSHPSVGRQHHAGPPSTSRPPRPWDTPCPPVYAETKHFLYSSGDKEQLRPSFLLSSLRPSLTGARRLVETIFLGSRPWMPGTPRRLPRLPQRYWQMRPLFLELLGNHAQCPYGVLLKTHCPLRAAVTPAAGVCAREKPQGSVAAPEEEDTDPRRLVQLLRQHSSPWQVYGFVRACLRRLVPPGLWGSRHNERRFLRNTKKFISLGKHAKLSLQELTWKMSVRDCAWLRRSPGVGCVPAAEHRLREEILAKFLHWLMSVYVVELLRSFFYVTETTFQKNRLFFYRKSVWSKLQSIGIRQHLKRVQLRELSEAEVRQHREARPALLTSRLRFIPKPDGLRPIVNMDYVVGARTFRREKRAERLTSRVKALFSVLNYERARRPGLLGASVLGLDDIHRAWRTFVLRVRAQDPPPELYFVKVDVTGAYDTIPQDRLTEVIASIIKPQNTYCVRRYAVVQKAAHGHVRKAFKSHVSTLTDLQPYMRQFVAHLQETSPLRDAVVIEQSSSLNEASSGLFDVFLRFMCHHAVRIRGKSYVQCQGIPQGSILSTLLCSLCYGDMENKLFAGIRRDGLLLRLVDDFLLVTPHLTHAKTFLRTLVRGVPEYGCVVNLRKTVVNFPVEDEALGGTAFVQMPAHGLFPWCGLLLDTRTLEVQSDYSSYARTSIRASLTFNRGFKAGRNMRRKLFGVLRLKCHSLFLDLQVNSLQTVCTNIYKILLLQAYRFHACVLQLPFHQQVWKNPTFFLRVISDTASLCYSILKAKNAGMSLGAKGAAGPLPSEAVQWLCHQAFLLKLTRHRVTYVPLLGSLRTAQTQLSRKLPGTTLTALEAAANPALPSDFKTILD
Chain of telomerase in HT3 cells (O60832 whole entry partner): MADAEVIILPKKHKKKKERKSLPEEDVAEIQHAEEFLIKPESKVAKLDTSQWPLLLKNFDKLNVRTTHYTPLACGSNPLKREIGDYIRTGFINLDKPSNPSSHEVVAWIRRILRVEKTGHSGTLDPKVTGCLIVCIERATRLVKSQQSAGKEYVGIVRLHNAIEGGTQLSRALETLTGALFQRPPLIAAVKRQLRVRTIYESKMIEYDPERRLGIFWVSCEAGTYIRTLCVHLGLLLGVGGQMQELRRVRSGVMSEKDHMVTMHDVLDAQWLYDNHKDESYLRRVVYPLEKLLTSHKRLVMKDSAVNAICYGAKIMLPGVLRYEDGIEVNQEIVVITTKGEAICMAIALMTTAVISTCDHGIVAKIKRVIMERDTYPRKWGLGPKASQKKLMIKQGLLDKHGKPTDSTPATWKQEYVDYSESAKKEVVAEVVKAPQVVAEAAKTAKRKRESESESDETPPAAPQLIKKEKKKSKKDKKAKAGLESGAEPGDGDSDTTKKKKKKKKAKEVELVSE
Chain of telomerase in HT3 cells (Q9NX24 whole entry partner): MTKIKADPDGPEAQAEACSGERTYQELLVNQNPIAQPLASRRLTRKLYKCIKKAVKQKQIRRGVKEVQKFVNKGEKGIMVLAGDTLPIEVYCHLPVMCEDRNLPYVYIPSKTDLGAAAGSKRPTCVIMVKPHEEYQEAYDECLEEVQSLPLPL
Chain of telomerase in HT3 cells (Q9NPE3 whole entry partner): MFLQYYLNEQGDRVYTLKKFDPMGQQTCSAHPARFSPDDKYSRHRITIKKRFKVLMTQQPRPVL
Chain of telomerase in HT3 cells (Q9NY12 whole entry partner): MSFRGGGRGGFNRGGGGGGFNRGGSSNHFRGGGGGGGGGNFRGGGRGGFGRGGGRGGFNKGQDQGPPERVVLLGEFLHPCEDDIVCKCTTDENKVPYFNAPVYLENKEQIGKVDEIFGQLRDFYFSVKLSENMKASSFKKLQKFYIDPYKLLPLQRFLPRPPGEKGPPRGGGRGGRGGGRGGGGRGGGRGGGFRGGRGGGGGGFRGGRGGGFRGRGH
Chain of telomerase in HT3 cells (Q9BUR4 whole entry partner): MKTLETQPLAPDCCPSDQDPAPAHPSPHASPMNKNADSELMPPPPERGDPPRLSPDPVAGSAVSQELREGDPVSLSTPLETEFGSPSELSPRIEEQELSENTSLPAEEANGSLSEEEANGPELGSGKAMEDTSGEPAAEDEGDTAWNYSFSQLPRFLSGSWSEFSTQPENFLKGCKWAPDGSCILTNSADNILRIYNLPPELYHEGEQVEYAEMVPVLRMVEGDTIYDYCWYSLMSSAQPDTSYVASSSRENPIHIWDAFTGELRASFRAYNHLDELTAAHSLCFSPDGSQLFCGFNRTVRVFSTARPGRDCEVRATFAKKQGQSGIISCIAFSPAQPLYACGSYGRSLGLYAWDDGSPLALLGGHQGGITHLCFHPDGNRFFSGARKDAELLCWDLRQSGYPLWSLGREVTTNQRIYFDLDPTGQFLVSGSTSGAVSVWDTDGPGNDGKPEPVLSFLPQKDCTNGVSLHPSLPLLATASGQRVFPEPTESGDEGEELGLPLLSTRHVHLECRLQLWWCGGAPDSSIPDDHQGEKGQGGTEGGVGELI

As to `CC(Cn1cnc2c(=O)[nH]c(N)nc21)OCP(=O)(O)NCCCNCCCCNCCCNP(=O)(O)COC(C)Cn1cnc2c(=O)[nH]c(N)nc21` (stereo not drawn) [compound 142942], the EC50 on telomerase in HT3 cells (setting [2]) is 1.84 µM.
In the case of `C=C(COCP(=O)(O)NCCCNCCCCN)Cn1cnc2c(=O)[nH]c(N)nc21` [compound 142873], the EC50 at telomerase in HT3 cells (setting [2]) came to 6.7 µM.
For `C=C(COCP(=O)(O)O)Cn1cnc2c(=O)[nH]c(N)nc21` [ID#142811, (((2-((2-amino-6-oxo-1H-purin-9(6H)-yl)methyl)allyl)oxy)methyl)phosphonic acid], the “estimated average telomere length” value with A549 cells (20 μM) is reported as 5 kb. The “cytotoxicity compared with PMPG” value in the data set with RPE-64-tv cells is given as “less cytotoxic than PMPG”. Moreover, in the data set with RPE-64-tv cells (200 μM), the “effect on tissue culture” value is “no effect on tissue culture”.
On to Imetelstat [reference compound], for which the “estimated average telomere length” value in the data set with A549 cells (2 μM) is 4.3 kb; in the data set with immortal U87 cells, 3.5 kb. Further, in the data set with Caki-1 cells, the “tumor growth compared to vehicle control” value was “reduction in tumor growth”. For the same compound, the tumor volume in the data set on Caki-1 cells (setting [3]) was 146.0 mm^3; with Caki-1 cells (setting [4]), 293.5 mm^3; with Caki-1 cells (setting [5]) it was 517.0 mm^3; in the data set on Caki-1 cells (setting [6]), 832.2 mm^3; in the data set with Caki-1 cells (setting [7]), 1254.8 mm^3; in the data set with Caki-1 cells (setting [8]) it was 1800.7 mm^3. Besides, the “tumor volume as a percentage of the tumor volume of control vehicle mice” value with Caki-1 cells (setting [3]) is listed as 81%; in the data set with Caki-1 cells (setting [4]) it was 74%; in the data set with Caki-1 cells (setting [5]), 70%; in the data set on Caki-1 cells (setting [6]), 67%; in the data set with Caki-1 cells (setting [7]), 65%; in the data set with Caki-1 cells (setting [8]), 63%. The “Intercept coefficient of linear transformed tumor growth curve” value in the data set with Caki-1 cells was −0.074. Moreover, in the data set on Caki-1 cells, the “Slope coefficient of linear transformed tumor growth curve” value is on record as −0.032.
Turning to `CC(C)OC(=O)OCOP(=O)(COC(C)Cn1cnc2c(=O)[nH]c(N)nc21)OCOC(=O)OC(C)C` (single isomer, unassigned) [compound 142715], the EC50 at telomerase in HT3 cells (setting [2]) is 1.2 µM and 3.1 µM.
Turning to `CC(Cn1cnc2c(=O)[nH]c(N)nc21)OCP(=O)(O)O` (single isomer, unassigned) [ID#142693, R-(((Guanine-9-yl)propan-2-oxy)methyl) phosphonic acid], at telomerase in HT3 cells (Table 8, assay not given, repeat determinations, values coincide with Ex Vivo TRAP, read-out: EC50), the EC50 is 11.7 µM and 2.5 µM and 1.5 µM. Besides, the “estimated average telomere length” value in the data set with A549 cells (10 μM and 5 μM) is given as 4 kb. The cytotoxicity result is recorded as “acutely cytotoxic” in data set [1] (200 uM); “minimal cytotoxicity” in data set [1] (therapeutic doses (10 μM and 20 μM)). For the same compound, the “tumor growth compared to vehicle control” value in the data set with Caki-1 cells was “reduction in tumor growth”. Further, the tumor volume was 165.1 mm^3 in the data set with Caki-1 cells (setting [3]); 330.8 mm^3 in the data set with Caki-1 cells (setting [4]); 581.3 mm^3 in the data set on Caki-1 cells (setting [5]); 934.3 mm^3 with Caki-1 cells (setting [6]); 1407.2 mm^3 in the data set on Caki-1 cells (setting [7]); 2017.6 mm^3 with Caki-1 cells (setting [8]). Further, the “tumor volume as a percentage of the tumor volume of control vehicle mice” value in the data set with Caki-1 cells (setting [3]) is reported as 91%; in the data set with Caki-1 cells (setting [4]) it was 83%; in the data set with Caki-1 cells (setting [5]), 78%; in the data set on Caki-1 cells (setting [6]), 75%; with Caki-1 cells (setting [7]), 73%; in the data set on Caki-1 cells (setting [8]), 71%. For the same compound, in the data set on Caki-1 cells, the “Intercept coefficient of linear transformed tumor growth curve” value amounted to 0.096. In addition, in the data set on Caki-1 cells, the “Slope coefficient of linear transformed tumor growth curve” value is −0.027.
`CC(Cn1cnc2c(=O)[nH]c(N)nc21)OCP(=O)(O)O` (single isomer, unassigned) [compound 142693]: on telomerase in HT3 cells (setting [2]), the EC50 worked out at 11.7 µM.
Same read-out and setting: in the case of `C=C(COCP(=O)(O)O)Cn1cnc2c(=O)[nH]c(N)nc21` [compound 142811] it was 2.6 µM.
Turning to `CC(C)OC(=O)OCOP(=O)(COC(C)Cn1cnc2c(=O)[nH]c(N)nc21)OCOC(=O)OC(C)C` (single isomer, unassigned) [ID#142748, PMPG prodrug, S form], at telomerase in HT3 cells (HT3 cells, 0.2 μM to 20 μM, two independent experiments, read-out: Ex vivo Assay IC 50), the IC50 is over 20 µM.
Turning to `CC(Cn1cnc2c(=O)[nH]c(N)nc21)OCP(=O)(O)NCCCNCCCCN` (stereo not drawn) [compound 142812], the concentration giving a half-maximal response (EC50) at telomerase in HT3 cells (setting [2]) worked out at 5 µM.
Regarding `CC(Cn1cnc2c(=S)[nH]c(N)nc21)OCP(=O)(O)O` (stereo not drawn) [compound 142694], the half-maximal effective concentration (EC50) on telomerase in HT3 cells (setting [2]) came to 7.54 µM.
The same measure, in the same setting: then `CCCCCCCCCCNP(=O)(O)COC(C)Cn1cnc2c(=O)[nH]c(N)nc21` (stereo not drawn) [compound 142962], with 1.44 µM.

The EC50 is the concentration needed to bring the measured effect to its halfway point.
